Data on 1 substance can be found in patent publication US12662491B2 (Redona Therapeutics, Inc., priority 2020, dated 2026).

For the test, the target named is T1, Zcchc11 enzyme (Homo sapiens, UniProt Q5TAX3).
T1 construct: made in house; host or cells: HEK293 cells (Zcchc11); E. coli Rosetta II (LIN28A)
T1 sequence (Q5TAX3 212-1420): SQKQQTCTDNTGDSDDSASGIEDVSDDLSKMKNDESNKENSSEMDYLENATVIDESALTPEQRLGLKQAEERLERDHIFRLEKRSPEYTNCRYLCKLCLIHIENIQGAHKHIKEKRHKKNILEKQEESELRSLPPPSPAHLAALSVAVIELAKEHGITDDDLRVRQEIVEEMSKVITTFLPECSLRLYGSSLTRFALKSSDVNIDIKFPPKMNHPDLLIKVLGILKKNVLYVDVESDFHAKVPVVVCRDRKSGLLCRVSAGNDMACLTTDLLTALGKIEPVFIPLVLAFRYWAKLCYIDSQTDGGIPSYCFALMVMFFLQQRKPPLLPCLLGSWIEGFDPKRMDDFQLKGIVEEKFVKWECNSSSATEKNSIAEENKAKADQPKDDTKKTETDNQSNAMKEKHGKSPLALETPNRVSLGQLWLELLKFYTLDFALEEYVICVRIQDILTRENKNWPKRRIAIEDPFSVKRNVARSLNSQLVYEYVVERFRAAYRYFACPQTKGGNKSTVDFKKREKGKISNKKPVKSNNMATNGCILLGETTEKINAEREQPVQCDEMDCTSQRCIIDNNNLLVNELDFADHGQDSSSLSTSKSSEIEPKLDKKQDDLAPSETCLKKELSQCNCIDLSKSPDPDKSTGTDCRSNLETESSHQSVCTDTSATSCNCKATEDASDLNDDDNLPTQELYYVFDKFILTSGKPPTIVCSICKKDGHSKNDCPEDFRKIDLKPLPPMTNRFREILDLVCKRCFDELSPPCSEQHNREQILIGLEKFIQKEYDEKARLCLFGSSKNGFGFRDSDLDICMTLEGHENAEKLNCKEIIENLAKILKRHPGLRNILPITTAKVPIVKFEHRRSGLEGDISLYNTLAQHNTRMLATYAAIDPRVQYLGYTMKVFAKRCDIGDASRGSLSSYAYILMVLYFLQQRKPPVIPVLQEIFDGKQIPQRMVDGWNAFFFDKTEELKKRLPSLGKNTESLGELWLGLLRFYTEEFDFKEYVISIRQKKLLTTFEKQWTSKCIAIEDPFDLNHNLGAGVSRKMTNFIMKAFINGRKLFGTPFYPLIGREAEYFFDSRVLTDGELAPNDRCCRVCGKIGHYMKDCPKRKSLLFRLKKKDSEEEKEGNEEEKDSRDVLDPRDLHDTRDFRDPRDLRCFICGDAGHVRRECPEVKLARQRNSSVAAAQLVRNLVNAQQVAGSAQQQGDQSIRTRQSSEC
Nature of the test: TUTase assay (Zcchc11 assay, Lin28a-dependent polyuridylation of pre-let-7). The following applies: Lin28a-dependent Zcchc11 (Z11) TUTase activity; read-out: Potency Lin28a-dep Z11 IC50. Type of test: biochemical. The procedure, abridged: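 Human Zcchc11 residues 212-1420 (HEK293-expressed, MBP tag cleaved, C-terminal FLAG) at 0.2 nM, with 10 nM full-length human LIN28A and 2 nM 5′-fluorescein pre-let-7, preincubated with compound 30 min at room temperature. Reaction started with 5 uM UTP plus 4 nM 3′-rhodamine A20 quench probe; fluorescein loss read kinetically, IC50 from initial rates.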

“rac-6- chloro-7- ((2R,3S)-2- (((3- chloropyridin- 2- yl)oxy) methyl)-3- methyl- pyrrolidin-1- yl)-1-(6-(3- (dimethyl- amino) azetidin-1- yl)pyridin- 3-yl)-4- oxo-1,4- dihydro- quinoline-3- carboxylic acic [Compound 260]”: the IC50 is not above 1000 nM.

As usually defined, the IC50 is the concentration that gives 50% inhibition.
